Experimental data published in US11072581B2, “N-acyl-arylsulfonamide derivatives as aminoacyl-tRNA synthetase inhibitors” (Oxford Drug Design Limited, priority 2015, dated 2021).
Like-named read-outs stand apart in the source and are kept apart here.

Tests used:
[1] = molecular target: T1, EcoIRS (isoleucyl-tRNA synthetase from Escherichia coli) (Escherichia coli, UniProt P00956); assay: aaRS aminoacylation assay (ATP consumption), EcoIRS; assay type: biochemical; conditions: i.a. = inactive at a concentration below 50 uM
T1 construct: made in house; host or cells: Escherichia coli M15
Experimental: (§1) The compounds have been tested for antibacterial activity in vitro as aminoacyl-tRNA synthetases (aaRS) inhibitors following the following process.
(§2) Leucyl-, valyl- and isoleucyl-tRNA synthetases (LRS, VRS and IRS, respectively) from Escherichia coli (Eco) and Staphylococcus aureus (Sau).
(§3) Escherichia coli M15 cells transformed with plasmid pQE-60, or pQE-70, containing the open-reading frame sequence of one targeted aaRS were induced with 1 mM IPTG (Isopropyl β-D-1-thiogalactopyranoside) for 3 h at 37° C. Bacterial cells were harvested and lysed with 20 mM NaH2PO4 (pH 8.0), 200 mM NaCl, 10 mM imidazole and protease inhibitor cocktail (Roche). Pathogenic aaRS was purified by nickel affinity standard chromatography. Protein concentration was determined by spectrophotometry.
(§4) tRNA^Leu, tRNA^Val and tRNA^Ile from E. coli and S. aureus were transcribed in vitro for 4 h at 37° C. using T7 RNA polymerase. Transcription reaction contained 40 mM Tris-HCl (pH 8.0), 22 mM MgCl2, 1 mM spermidine, 5 mM DTT, 0.01% Triton X-100, 4 mM GTP, 4 mM ATP, 4 mM UTP, 4 mM CTP, 16 mM GMP, […] T7 RNA polymerase and 150 μg BstNI digested plasmid. Once finished, the reaction was applied on a 6% polyacrylamide-8 M urea denaturing gel to purify the transcribed tRNA and discard any impurities. Purified tRNA was quantified with Nanodrop 2000 (Thermo Scientific).
(§5) The aminoacylation reaction catalyzed by aminoacyl-tRNA synthetases (aaRS) takes place in two steps. In the first step, aaRS activates its cognate amino acid with ATP; and in the second step the activated amino acid is loaded to its corresponding tRNA. This reaction can be summarized as follows: ARS+aa+ATP=ARS-aa-AMP+PPi ARS-aa-AMP+tRNA=aa-tRNA+AMP+ARS [2] (ARS, Aminoacyl-tRNA synthetase; aa, amino acid; ARS-aa-AMP, enzyme-bound to aminoacyl-adenylate; aa-tRNA, aminoacyl-tRNA).
(§6) The activity of the pathogenic aaRSs was monitored by measuring the ATP consumption rate, since this consumption is directly proportional to the activity of the aaRS. If the tested compound, at a single point concentration of 50 μM, is inhibiting the aminoacylation reaction, there is a decrease in the ATP consumption, compared to the control reaction without compound, allowing the calculation of an inhibition ratio.
(§7) When the inhibition ratio for a given compound was above 80%, IC50 determination was performed with the same enzymatic assay (using the commercial kit Kinase RR from BioThema AB, Sweden) in the presence of serial dilutions of inhibitor. Known inhibitors of LRS, VRS or IRS were used as a positive control of the assay. The IC50 was calculated based on nonlinear regression analysis.

[2] = molecular target: T2, SauLRS (leucyl-tRNA synthetase from Staphylococcus aureus) (Staphylococcus aureus, UniProt Q2FXH2); assay: aaRS aminoacylation assay (ATP consumption), SauLRS; assay type: biochemical; conditions: i.a. = inactive at a concentration below 50 uM; for IC50: read-out: IC50 SauLRS
T2 construct: made in house; host or cells: Escherichia coli M15
T2 sequence (Q2FXH2 1-805): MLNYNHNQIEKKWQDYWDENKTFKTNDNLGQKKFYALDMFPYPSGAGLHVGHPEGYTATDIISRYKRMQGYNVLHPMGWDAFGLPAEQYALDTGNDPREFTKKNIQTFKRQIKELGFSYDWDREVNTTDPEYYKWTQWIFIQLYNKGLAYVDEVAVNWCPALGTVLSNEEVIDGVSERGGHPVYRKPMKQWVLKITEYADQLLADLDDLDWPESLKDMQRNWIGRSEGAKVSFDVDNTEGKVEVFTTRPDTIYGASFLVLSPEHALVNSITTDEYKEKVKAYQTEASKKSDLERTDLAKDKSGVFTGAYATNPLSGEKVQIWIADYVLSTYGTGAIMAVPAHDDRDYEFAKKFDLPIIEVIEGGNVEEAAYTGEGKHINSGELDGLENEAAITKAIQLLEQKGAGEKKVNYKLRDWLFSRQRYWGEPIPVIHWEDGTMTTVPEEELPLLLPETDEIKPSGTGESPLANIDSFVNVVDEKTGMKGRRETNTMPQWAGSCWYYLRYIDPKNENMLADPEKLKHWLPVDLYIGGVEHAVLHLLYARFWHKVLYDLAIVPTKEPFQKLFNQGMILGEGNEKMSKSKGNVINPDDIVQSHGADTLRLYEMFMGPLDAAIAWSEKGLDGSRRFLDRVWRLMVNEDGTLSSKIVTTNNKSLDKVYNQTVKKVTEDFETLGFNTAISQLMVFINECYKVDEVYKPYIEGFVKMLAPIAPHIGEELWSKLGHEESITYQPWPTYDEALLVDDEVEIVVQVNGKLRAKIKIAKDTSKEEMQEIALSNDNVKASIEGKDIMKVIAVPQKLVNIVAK
Experimental: as §1, §2, §3, §4, §5, §6, §7

[3] = molecular target: T3, EcoLRS (leucyl-tRNA synthetase from Escherichia coli) (Escherichia coli, UniProt P07813); assay: aaRS aminoacylation assay (ATP consumption), EcoLRS; assay type: biochemical
T3 construct: made in house; host or cells: Escherichia coli M15
Experimental: as §1, §2, §3, §4, §5, §6, §7

[4] = i.a. = inactive at a concentration below 50 uM, read-out: IC50 EcoLRS

T3 sequence (P07813 whole entry): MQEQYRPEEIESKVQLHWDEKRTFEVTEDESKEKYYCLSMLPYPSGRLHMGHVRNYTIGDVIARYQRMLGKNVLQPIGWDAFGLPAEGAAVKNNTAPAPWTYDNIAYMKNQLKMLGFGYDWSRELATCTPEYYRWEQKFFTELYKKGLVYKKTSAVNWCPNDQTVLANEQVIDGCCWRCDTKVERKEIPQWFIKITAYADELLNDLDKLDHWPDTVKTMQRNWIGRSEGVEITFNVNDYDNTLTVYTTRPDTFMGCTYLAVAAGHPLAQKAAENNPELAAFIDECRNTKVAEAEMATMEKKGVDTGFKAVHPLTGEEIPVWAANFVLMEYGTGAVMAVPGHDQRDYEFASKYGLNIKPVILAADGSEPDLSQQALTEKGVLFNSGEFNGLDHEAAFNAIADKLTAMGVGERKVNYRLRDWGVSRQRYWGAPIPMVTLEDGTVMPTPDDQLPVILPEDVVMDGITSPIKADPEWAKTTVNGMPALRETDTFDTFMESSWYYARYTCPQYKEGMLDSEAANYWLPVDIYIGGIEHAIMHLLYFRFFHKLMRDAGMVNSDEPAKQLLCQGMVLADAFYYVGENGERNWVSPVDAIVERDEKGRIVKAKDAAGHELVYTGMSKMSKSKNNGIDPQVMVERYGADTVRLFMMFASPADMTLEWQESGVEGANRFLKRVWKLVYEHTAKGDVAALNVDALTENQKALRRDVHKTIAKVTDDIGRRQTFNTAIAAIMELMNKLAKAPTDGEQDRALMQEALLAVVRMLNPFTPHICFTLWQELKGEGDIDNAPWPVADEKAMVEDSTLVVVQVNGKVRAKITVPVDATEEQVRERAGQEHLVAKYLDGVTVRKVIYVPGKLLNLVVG
T1 sequence (P00956 whole entry): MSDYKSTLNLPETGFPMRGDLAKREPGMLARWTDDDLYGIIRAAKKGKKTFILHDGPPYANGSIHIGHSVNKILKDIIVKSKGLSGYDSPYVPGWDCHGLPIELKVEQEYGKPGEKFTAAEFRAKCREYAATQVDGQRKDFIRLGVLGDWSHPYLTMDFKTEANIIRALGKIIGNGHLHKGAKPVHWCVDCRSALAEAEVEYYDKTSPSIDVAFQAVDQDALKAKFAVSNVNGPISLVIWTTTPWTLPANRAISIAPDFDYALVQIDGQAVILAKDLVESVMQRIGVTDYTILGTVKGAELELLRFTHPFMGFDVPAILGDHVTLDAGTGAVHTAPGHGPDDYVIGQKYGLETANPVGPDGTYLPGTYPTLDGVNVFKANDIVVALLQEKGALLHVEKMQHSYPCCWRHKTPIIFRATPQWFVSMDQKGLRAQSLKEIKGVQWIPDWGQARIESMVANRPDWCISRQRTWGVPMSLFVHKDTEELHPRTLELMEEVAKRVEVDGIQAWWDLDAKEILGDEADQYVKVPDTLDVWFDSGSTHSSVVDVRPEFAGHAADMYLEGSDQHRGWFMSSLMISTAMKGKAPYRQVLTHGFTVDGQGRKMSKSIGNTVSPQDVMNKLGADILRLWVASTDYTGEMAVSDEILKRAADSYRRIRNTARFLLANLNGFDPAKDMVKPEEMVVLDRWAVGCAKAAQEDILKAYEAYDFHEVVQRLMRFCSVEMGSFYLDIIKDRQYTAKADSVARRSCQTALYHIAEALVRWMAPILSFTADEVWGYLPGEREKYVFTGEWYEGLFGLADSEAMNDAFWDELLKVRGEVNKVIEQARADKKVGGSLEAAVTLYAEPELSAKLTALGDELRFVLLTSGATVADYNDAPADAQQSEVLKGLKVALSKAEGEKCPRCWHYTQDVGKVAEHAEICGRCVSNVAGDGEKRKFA

SMILES	IC50 EcoIRS [1]	IC50 [2]	IC50 [3]	melting point	IC50 [3, 4]	IC50 SauLRS [2]	IC50 EcoLRS ([3]; i.a. = inactive at a concentration below 50 uM)	% at single point concentration (inhibition ratio), EcoLRS ([3]; @50 μM compound)
CC(C)C[C@H](N)C(=O)NS(=O)(=O)c1ccc(Oc2ccccc2)cc1 [Compound 5.2]	i.a	16.3 µM	0.713 µM	224 to 225 °C	–	–	–	–
CC(C)C[C@H](N)C(=O)NS(=O)(=O)c1ccccc1-c1ccccc1 [Compound 5.3]	i.a	14.8 µM	0.159 µM	143 °C (dec.)	–	–	–	–
CC(C)C[C@H](N)C(=O)NS(=O)(=O)c1cccc(-c2ccccc2)c1 [Compound 5.9]	i.a	0.65 µM	–	149 °C (dec.)	0.032 µM	–	–	–
CC(C)C[C@H](N)C(=O)NS(=O)(=O)c1ccc(-c2ccccc2)cc1 [Compound 5.11]	i.a	11.3 µM	27.6 µM	212 °C (dec.)	–	–	–	–
CC(C)C[C@H](N)C(=O)NS(=O)(=O)c1c(C(C)C)cc(C(C)C)cc1C(C)C [Compound 5.12]	i.a	–	32.7 µM	217 °C	–	i.a	–	–
CC(C)C[C@H](N)C(=O)NS(=O)(=O)c1ccc2ccccc2c1 [Compound 5.14]	i.a	1 µM	–	215 °C (dec.)	0.065 µM	–	–	–
CC[C@H](C)[C@H](N)C(=O)NS(=O)(=O)c1ccc2ccccc2c1 [Compound 5.15]	i.a	–	–	229.7 °C	–	i.a	i.a	–
COc1ccc2cc(S(=O)(=O)NC(=O)[C@@H](N)CC(C)C)ccc2c1 [Compound 5.17]	i.a	2 µM	0.92 µM	230 to 232 °C	–	–	–	–
CC(C)C[C@H](N)C(=O)NS(=O)(=O)c1cccc2ccncc12 [Compound 5.21]	i.a	3.42 µM	0.483 µM	55 to 57 °C	–	–	–	–
CC(C)C[C@H](N)C(=O)NS(=O)(=O)c1cccc2c1OCCC2 [Compound 5.25]	i.a	14.1 µM	0.149 µM	165 °C (dec.)	–	–	–	–
Cc1cc(-c2cccc(S(=O)(=O)NC(=O)[C@@H](N)CC3CC3)c2)nc(N)n1 [Compound 5.30]	i.a	–	14 µM	> 192 °C (dec.)	–	i.a	–	–
Cc1cc(-c2cccc(S(=O)(=O)NC(=O)[C@@H](N)C3CC3)c2)nc(N)n1 [Compound 5.33]	i.a	–	–	158 °C (dec.)	–	i.a	–	40%@50
